Broadly, the pIC50 is the negative decadic logarithm of the IC50, by convention in mol/L. Usually IC50 stands for the concentration at which inhibition is half-maximal.

Structures are written as SMILES. pIC50: −log10 of the molar value. Where two headings read alike, the source gives them in different places.

One experiment addresses T1, TTK (Homo sapiens, UniProt P33981).
T1 sequence (P33981 1-857): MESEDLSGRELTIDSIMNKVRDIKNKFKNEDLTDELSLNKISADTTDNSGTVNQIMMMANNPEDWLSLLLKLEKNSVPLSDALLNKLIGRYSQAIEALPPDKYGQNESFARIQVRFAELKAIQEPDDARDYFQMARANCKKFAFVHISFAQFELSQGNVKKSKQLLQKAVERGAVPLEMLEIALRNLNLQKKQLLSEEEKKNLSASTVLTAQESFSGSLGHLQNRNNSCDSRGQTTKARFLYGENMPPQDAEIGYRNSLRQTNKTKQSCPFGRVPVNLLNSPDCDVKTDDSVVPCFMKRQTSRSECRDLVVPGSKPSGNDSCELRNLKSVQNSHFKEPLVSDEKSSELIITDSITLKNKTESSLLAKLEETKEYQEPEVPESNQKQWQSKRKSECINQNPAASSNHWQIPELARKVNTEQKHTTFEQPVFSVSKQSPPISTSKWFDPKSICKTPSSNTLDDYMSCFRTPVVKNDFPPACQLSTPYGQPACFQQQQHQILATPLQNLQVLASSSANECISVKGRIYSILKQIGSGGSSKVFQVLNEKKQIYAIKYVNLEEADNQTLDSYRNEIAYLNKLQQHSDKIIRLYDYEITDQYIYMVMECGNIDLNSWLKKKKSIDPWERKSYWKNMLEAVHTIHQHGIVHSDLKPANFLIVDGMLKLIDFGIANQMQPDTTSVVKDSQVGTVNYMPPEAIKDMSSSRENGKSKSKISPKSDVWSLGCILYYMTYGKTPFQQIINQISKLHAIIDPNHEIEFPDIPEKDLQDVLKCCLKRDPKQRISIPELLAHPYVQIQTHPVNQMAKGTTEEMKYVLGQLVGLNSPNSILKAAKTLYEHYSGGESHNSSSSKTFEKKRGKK
The experiment in a line: TTK assay: screening of TTK kinase activity suppressing action using p38 MAPK peptide. It is filed as biochemical. As to the method: Screening of a compound having a TTK kinase activity suppressing action using p38 MAPK peptide
A test substance 1.0 μL (solvent: 10% (v/v) DMSO), TTK solution 5 μL (composition: 4 μg/ml TTK, 25 mM Tris-HCl, pH7.5, 5 mM β-glycerophosphate, 2 mM DTT, 0.1 mM Na3VO4, 5 mM MgCl2, 0.1% (w/v)BSA) and a substrate solution 5 μL (composition: 60 μM p38 MAPK peptide, 60 μM ATP, 25 mM Tris-HCl, pH7.5, 5 mM β-glycerophosphate, 2 mM DTT, 0.1 mM Na3VO4, 5 mM MgCl2, 0.1% (w/v)BSA) were mixed in the wells of a 384-well microtiter plate (manufactured by Corning Incorporated) made of polypropylene and loaded in a constant temperature and humidity room.
From the resultant mixture, an aliquot of 1.7 μL was taken out and mixed with the reaction terminating solution (60 μl) in the wells of a 384-well microtiter plate (manufactured by Corning Incorporated) made of polypropylene. Thereafter, 40 μL of the mixture was transferred to a 384-well black NeutrAvidin plate (PIERCE), sealed and incubated under room temperature for 30 minutes. […] Similarly, the plate was washed with TTBS (100 μL) three times, 40 μl of a secondary antibody solution (Eu-N1 labeled Anti-mouse IgG (Perkin Elmer, #AD0124)) was added and incubated under room temperature for 30 minutes. After the plate was washed with TTBS (100 μL) five times, 40 μL of an enhance solution (Perkin Elmer) was added and incubated under room temperature for 5 minutes. […] Based on the fluorescence value in the absence of a test substance, the suppression activity of a test substance was measured.

A further experiment concerns A549. The experiment in a line: A549 assay: screening of cancer cell growth inhibiting compound. The format is cell-based. The following applies: Homo sapiens; for pIC50: 72 h, A549 cells, three days, WST-8, read-out: A549 IC50; for IC50: A549, 72 h, read-out: A549 IC50 (μM). As to the method: Screening of Cancer Cell Growth Inhibiting Compound
A cell suspension solution (RERF-LC-AI, A549: 1×10^4/ml, MRC5: 3×10^4/ml and 1×10^5/ml) adjusted to an appropriate concentration with D-MEM (hereinafter, referred to as a culture solution and manufactured by Nacalai Tesque Inc.) supplemented with 10% FBS (HyClone) was added to the wells of a 96-well plate (hereinafter, well plate) at a rate of 100 μL/well and incubated in a CO2 incubator at 37° C. for a day. […] Next, cells were added to each well of the well plate prepared and the above compound dilution solution was added at a rate of 100 μL/well to obtain 200 μL/well. Thereafter, the cells were incubated in the CO2 incubator at 37° C. for further three days. To each well of the well plate, 10 μL of a WST-8 kit (Kishida Chemical Co., Ltd.) solution for counting the number of cells was added and a color reaction was performed in the CO2 incubator for 1 to 4 hours. After the absorbance at 450 nm (reference wavelength: 620 nm) was measured by a microplate reader, suppressing action of the test substance was calculated based on the absorbance value in the absence of a test substance.

[1] abbreviates: p38 MAPK peptide substrate, read-out: TTK IC50.

As for `N#Cc1ccc(-c2cn3c(-c4ccc(C(=O)NC5CC5)cc4)cnc3c(NCc3cccs3)n2)cc1` [Example 1-212], the pIC50 on TTK (setting [1]) is 8.14; in the experiment with A549 it was 6.30 to 7.30.
For `N#CCCNc1nc(-c2ccc(C#N)cc2)cn2c(-c3ccc(C(=O)NC4CC4)cc3)cnc12` [Example 1-213] the same measures were 7.79 and 6.30 to 7.30.
Consider `N#Cc1ccc(-c2cn3c(-c4ccc(C(=O)NC5CC5)cc4)cnc3c(NCCSCCO)n2)cc1` [Example 1-214], for which the figures for the pIC50 at TTK (setting [1]) and with A549 were 8.17 and 6.30 to 7.30, respectively.
In the case of `N#Cc1ccc(-c2cn3c(-c4ccc(C(=O)NC5CC5)cc4)cnc3c(NCCN3CCOCC3)n2)cc1` [Example 1-216], the pIC50 on TTK (setting [1]) was 7.69; with A549, 6.30 to 7.30.
The corresponding values for `N#Cc1ccc(-c2cn3c(-c4ccc(C(=O)NC5CC5)cc4)cnc3c(NCCOCCO)n2)cc1` [Example 1-217] are 7.31 and 5.00 to 6.00.
For `N#Cc1ccc(-c2cn3c(-c4ccc(C(=O)NC5CC5)cc4)cnc3c(NCCCO)n2)cc1` [Example 1-218] the same measures were 7.84 and 6.30 to 7.30.
The corresponding values for `N#Cc1ccc(-c2cn3c(-c4ccc(C(=O)NC5CC5)cc4)cnc3c(NCC3CC3)n2)cc1` [Example 1-219] are 8.02 and 6.30 to 7.30.
Turning to `N#Cc1ccc(-c2cn3c(-c4ccc(C(=O)NC5CC5)cc4)cnc3c(NCc3nccs3)n2)cc1` [Example 1-220], the pIC50 at TTK (setting [1]) was 7.71; with A549, 6.30 to 7.30.
For `N#Cc1ccc(-c2cn3c(-c4ccc(C(=O)NC5CC5)cc4)cnc3c(NCCC3CCOCC3)n2)cc1` [Example 1-221] the same measures were 8.02 and 6.30 to 7.30.
For `N#Cc1ccc(-c2cn3c(-c4ccc(C(=O)NC5CC5)cc4)cnc3c(NCC3COCCO3)n2)cc1` (stereo not drawn) [Example 1-222] the same measures were 7.77 and 6.30 to 7.30.
The corresponding values for `N#Cc1ccc(-c2cn3c(-c4ccc(C(=O)NC5CC5)cc4)cnc3c(NCCS(=O)(=O)N3CCCC3)n2)cc1` [Example 1-224] are 7.74 and 6.00 to 6.30.
For `N#Cc1ccc(-c2cn3c(-c4ccc(C(=O)NC5CC5)cc4)cnc3c(NCCc3cccc(O)c3)n2)cc1` [Example 1-226], the pIC50 on TTK (setting [1]) was 7.77; with A549 it was 6.00 to 6.30.
The corresponding values for `N#Cc1ccc(-c2cn3c(-c4ccc(C(=O)NC5CC5)cc4)cnc3c(NCCc3ccc(O)cc3)n2)cc1` [Example 1-228] are 7.69 and 6.00 to 6.30.
The corresponding values for `CC(=O)N1CCC(CNc2nc(-c3ccc(C#N)cc3)cn3c(-c4ccc(C(=O)NC5CC5)cc4)cnc23)CC1` [Example 1-233] are 7.69 and 6.00 to 6.30.
For `CC(C)(O)CNc1nc(-c2ccc(C#N)cc2)cn2c(-c3ccc(C(=O)NC4CC4)cc3)cnc12` [Example 1-235] the same measures were 7.89 and 6.30 to 7.30.
Consider `N#Cc1ccc(-c2cn3c(-c4ccc(C(=O)NC5CC5)cc4)cnc3c(NCC(F)F)n2)cc1` [Example 1-236], for which the pIC50 on TTK (setting [1]) is 8.08; in the experiment with A549, 6.30 to 7.30.
The corresponding values for `N#Cc1ccc(-c2cn3c(-c4ccc(C(=O)NC5CC5)cc4)cnc3c(NCCOCCOCCO)n2)cc1` [Example 1-237] are 7.40 and 5.00 to 6.00.
The corresponding values for `N#Cc1ccc(-c2cn3c(-c4ccc(C(=O)NC5CC5)cc4)cnc3c(NCCCCO)n2)cc1` [Example 1-238] are 7.84 and 6.30 to 7.30.
For `N#Cc1ccc(-c2cn3c(-c4ccc(C(=O)NC5CC5)cc4)cnc3c(NC[C@H]3CC[C@H](C(=O)O)CC3)n2)cc1` [Example 1-239] the same measures were 8.32 and 5.00 to 6.00.
In the case of `O=C(NC1CC1)c1ccc(-c2cnc3c(NCC4CCOCC4)nc(C=C4CCCCC4)cn23)cc1` [Example 1-248], the pIC50 with A549 is 5.00 to 6.00.
Regarding `CC(=O)N1CC=C(c2cn3c(-c4ccc(C(=O)NC5CC5)cc4)cnc3c(NCC3CCOCC3)n2)CC1` [Example 1-249], the pIC50 in the experiment with A549 is 6.00 to 6.30.
As for `O=C(NC1CC1)c1ccc(-c2cnc3c(NCC4CCOCC4)nc(CC4CCCCC4)cn23)cc1` [Example 1-250], in the experiment with A549, the pIC50 is 5.00 to 6.00.
On TTK, `CC(C)CNc1cc(NC2CCCCC2)nn2c(-c3ccc(C(=O)NC4CC4)cc3)cnc12` [Example 2-2, 4-(6-(Cyclohexylamino)-8-(isobutylamino)imidazo[1,2-b]pyridazin-3-yl)-N-cyclopropylbenzamide] had a pIC50 of 7.93. Also, the IC50 in the experiment on A549 was 0.05 to 0.5 µM.
On to `NC(=O)c1ccc(-c2cc(NCC3CCOCC3)c3ncc(-c4ccc(C(=O)NC5CC5)cc4)n3n2)cc1` [Example 2-4, 4-(6-(4-Carbamoylphenyl)-8-((tetrahydro-2H-pyran-4-yl)methylamino)imidazo[1,2-b]pyridazin-3-yl)-N-cyclopropylbenzamide], for which the pIC50 at TTK (setting [1]) is 8.35; in the experiment with A549, 5.00 to 6.00.
For `O=C(NC1CC1)c1ccc(-c2cc(NCC3CCOCC3)c3ncc(-c4ccc(C(=O)NC5CC5)cc4)n3n2)cc1` [Example 2-6, 4,4′-(8-((Tetrahydro-2H-pyran-4-yl)methylamino)imidazo[1,2-b]pyridazine-3,6-diyl)bis(N-cyclopropylbenzamide)], the figures for the pIC50 at TTK (setting [1]) and in the experiment with A549 were 7.92 and 6.30 to 7.30, respectively.
Take `CC(C)CNc1cc(-c2ccccc2)nn2c(-c3ccc(C(=O)NC4CC4)cc3)cnc12` [Example 2-7]: the IC50 in the experiment with A549 lay within 0.5 to 1 µM.
On to `Cc1nc(C)c(-c2cc(NCC(C)C)c3ncc(-c4ccc(C(=O)NC5CC5)cc4)n3n2)s1` [Example 2-8], for which the pIC50 with A549 was 6.00 to 6.30.
Turning to `Cc1nc(C)c(-c2cc(NCC3CCOCC3)c3ncc(-c4ccc(C(=O)NC5CC5)cc4)n3n2)s1` [Example 2-9], the pIC50 at TTK (setting [1]) is 7.71; in the experiment with A549, 6.00 to 6.30.
As for `O=C(NC1CC1)c1ccc(-c2cnc3c(NCC4CCOCC4)cc(N4CCCCC4)nn23)cc1` [Example 2-12], the results for the pIC50 on TTK (setting [1]) and in the experiment with A549 were 8.08 and 6.30 to 7.30, respectively.
For `O=C(NC1CC1)c1ccc(-c2cnc3c(NCC4CCOCC4)cc(NC4CCOCC4)nn23)cc1` [Example 2-13] the same measures were 8.23 and 6.30 to 7.30.
The corresponding values for `O=C(NC1CC1)c1ccc(-c2cnc3c(NCC4CCOCC4)cc(N4CCOCC4)nn23)cc1` [Example 2-14] are 8.03 and 6.30 to 7.30.
For the molecule `CN1CCN(c2cc(NCC3CCOCC3)c3ncc(-c4ccc(C(=O)NC5CC5)cc4)n3n2)CC1` [Example 2-15], the figures for the pIC50 on TTK (setting [1]) and in the experiment on A549 were 7.59 and 6.30 to 7.30, respectively.
For `O=C(NC1CC1)c1ccc(-c2noc3c(NCC4CCOCC4)nc(NC4CCCC4)nc23)cc1` [Example 3-4, 4-(5-(cyclopentylamino)-7-((tetrahydro-2H-pyran-4-yl)methylamino)isoxazolo[4,5-d]pyrimidin-3-yl)-N-cyclopropylbenzamide], the negative logarithm of the IC50 (pIC50) on TTK (read-out: TTK IC50) was 6.28.
